From US9949929B2, “Drug carrier and manufacturing method thereof” (National Taiwan University Hospital, priority 2015, dated 2018)

Experiments:
[1] = temperature increase of samples irradiated by near-infrared laser (photothermal); assay type: physicochemical; conditions: near-infrared laser 1 W/cm^2, 650 nm
Text: (§1) The drug carriers of example 1 and example 2 are used for preparing nanomicelles and drug-encapsulating nanomicelles so as to undergo the following tests. When preparing the nanomicelles, the dried drug carriers are uniformly dissolved in dimethyl sulfoxide (DMSO) to obtain a drug-carrier-DMSO solution. Next, the dimethyl sulfoxide (DMSO) in the drug-carrier-DMSO solution is removed by lyophilization, and the nanomicelles formed by self-assembly of the drug carriers are left. Last, the nanomicelles are put into a phosphate buffered saline (PBS) and sonicated for 20 min; therefore, the nanomicelles are uniformly dissolved in the phosphate buffered saline (PBS) for the following tests.
(§2) When preparing the drug-encapsulating nanomicelles, the drug molecules selected to be encapsulated in the nanomicelles are Doxorubicin (Doxo). First, the dried drug carriers and Doxorubicin molecules are uniformly dissolved in dimethyl sulfoxide (DMSO) to obtain a drug-carrier-Doxorubicin-DMSO solution. […]
Please refer to FIG. 5. […] When a temperature increase of samples irradiated by near-infrared light (NIR) is measured, the near-infrared light is a near-infrared laser, and the samples are the phosphate buffered saline (PBS), the Doxorubicin (Doxo), the nanomicelles and the drug-encapsulating nanomicelles which encapsulate the Doxorubicin (Doxo). […]

cancer cells = experiment: cell viability of cancer cells treated with nanomicelles, drug-encapsulating nanomicelles or free Doxorubicin; assay type: cell-based; set-up: dose or concentration left out as unconfirmed
Text: as §1
as §2, with “solution. Next, the dimethyl sulfoxide (DMSO) in the drug-carrier-Doxorubicin-DMSO solution is removed by lyophilization, and the drug-encapsulating nanomicelles formed by self-assembly of the drug carriers as well as Doxorubicin crystals which are not encapsulated in the drug-encapsulating nanomicelles are left.” for “solution.”

- temperature change as irradiation time is increased [1]: no significant change
SMILES: COc1cccc2c1C(=O)c1c(O)c3c(c(O)c1C2=O)C[C@@](O)(C(=O)CO)C[C@@H]3O[C@H]1C[C@H](N)[C@H](O)[C@H](C)O1 [Doxorubicin (Doxo), Doxorubicin]
- cell viability of the cancer cell (cancer cells): 80%
